In patent US8614230B2, “Derivatives of the aminated hydroxyquinoline class for treating cancers” (Biopharmed, priority 2007, dated 2013):
Like-named read-outs stand apart in the source and are kept apart here.

What was measured:
KB cells = test: Cytotoxicity / cell viability on KB cells (colony-forming assay); assay type: cell-based, human; conditions: for Cytotoxicity on KB cells (percentage inhibition of cell viability): relative to reference without compound
Protocol: Cancerous KB cells are also considered, to determine the cell viability (or survival rate). This cell viability is determined according to the teaching of Nicholson K. M. et al., British Journal of Cancer, 1999, 81, 423-430.
KB cells are human carcinoma cell lines, KB-3-1. These cells are maintained in a culture medium, “Dulbecco's modified Eagle's medium” (DMEM—Sigma), which contains 0.11 g/l of sodium pyruvate and 4.5 g/l of glucose, supplemented with 10% (v/v) fetal calf serum, penicillin (32 μg/ml) and streptomycin (50 μg/ml). The cells are cultured as monolayers and are incubated at 37° C. in a humid atmosphere (95% air/5% CO2).
The preceding KB cells are then incubated in 6- or 96-well plates in the presence of the test compounds of the invention, dissolved in dimethyl sulfoxide (DMSO). The content of surviving cells is measured by the “colony-forming assay” test, in which the cells are redistributed at a density of 100 to 300 cells per well in 24-well plates, for a period of 8 days, and are then stained with Leishman's reagent (0.2% in methanol). The colonies of more than 50 cells are counted visually under a microscope, the survival rate being expressed on the colonies formed in the presence of the compounds of the invention relative to cell colonies not treated with said compounds. The determination of the IC50 values (concentration of compounds in the reaction medium for which 50% of the tested tumor cells survived the treatment) enables comparison of the efficacy of these compounds.

U87/GFP cells [1] = test: Antiproliferative effect on U87/GFP cells (flash cytometry); assay type: cell-based, human; conditions: for inhibition at 10 µM / inhibition at 2 µM: read-out: Antiproliferative effect on U87/GFP cells: percentage inhibition
Protocol: For the U-87/GFP cells, the control of cell proliferation and migration in the presence of the compounds (I) of the invention is performed via a colorimetric method (MTS) and is performed according to known standard protocols. The methodologies implemented use flash cytometry (Trophos S.A., Marseilles, France). The flash cytometry technique involves fluorescence, which consists of irradiating a compound at a set wavelength and of recording the fluorescence emitted at another wavelength. This technique is performed with a flash cytometer and adapted for 96-well test plates. The excitation and emission wavelengths in the context of use of this fluorescence are located in the 485-495 nm range. The measured fluorescence expresses the amount of cells surviving after treatment with the compounds of the invention. The publications by Luby-Phelps K. et al., J. Histochemistry and Cytometry, 2003, 51, 271-274 and Modarai B. et al., Circulation, 2005, 111, 2645-2653 may be mentioned by way of reference for the above methods.
The cells of the U87/GFP lines are cultured in 96-well plates according to a standard methodology described by Bajetto et al., Neurochemistry International, 2006, 43, 31-38 in the presence of different concentrations of the compounds of the invention.
The cell proliferation is determined and quantified according to standard methods known to those skilled in the art. A 100% proliferation is attributed to the untreated cells and a percentage less than 100% is obtained when the same cells are treated with the compounds of the invention.
(§1) The cell proliferation and migration are determined by imaging using a flash cytometer (Trophos S.A., Marseilles, France), and the calculations are performed using the “Metamorph 4.6” imaging signal processing software (Molecular Devices, USA), the use of which, which is known in the field, makes it possible to determine the above two effects independently of each other.

U87/GFP cells [2] = test: Antimigratory effect on U87/GFP cells (scratch technique); assay type: cell-based, human
Protocol: The determination of the antimigratory activity of the compounds (I) of the invention on these same cell lines, cultured in MEM medium (Minimum Essential Medium) is performed via the “scratch” technique that consists in scratching a cell lawn using a micropipette cone. By comparison with these same cells not containing the compounds of the invention, the antimigratory effect is determined. A 100% migration is attributed to the untreated cells, whereas, as a function of the concentration of the compounds (I) of the invention, total stoppage of migration is determined by observation of the “scratch” remaining unfilled by the cell migration, by means of computer software.
as §1

mice = conditions: comparison value for anticancer drugs; cited from earlier work
[3] = Homo sapiens, KB, approximate value given in the description, read-out: cytotoxic activity IC50 on KB cells
[4] = Homo sapiens, KB, first value of two experiments performed in parallel, read-out: Cytotoxicity on KB cells (IC50)
[5] = Homo sapiens, KB, second value of two experiments performed in parallel, read-out: Cytotoxicity on KB cells (IC50)
[6] = first value of two experiments performed in parallel, read-out: Cytotoxicity on KB cells (IC50)
[7] = second value of two experiments performed in parallel, read-out: Cytotoxicity on KB cells (IC50)
[8] = concentration giving 80% inhibition of migration
[9] = Homo sapiens, concentration giving 50% inhibition of proliferation
[10] = concentration giving 50% inhibition of proliferation

Row | Compound | Cytotoxicity on KB cells (percentage inhibition of cell viability) (KB cells; at 1 μM) [% at 1 μM] | IC50 (KB cells; [4]) [µM] | IC50 (KB cells; [5]) [µM] | IC50 (KB cells; [6]) [µM] | IC50 (KB cells; [7]) [µM] | also measured
1 | CC(C)(C)OC(=O)N1CCCN(Cc2ccc(O)c3ncccc23)CCCN(C(=O)OC(C)(C)C)CCN(C(=O)OC(C)(C)C)CCC1 [I2, tri-tert-butyl 12-((8-hydroxyquinolin-5-yl)methyl)-1,4,8,12-tetraazacyclopentadecane-1,4,8-tricarboxylate] | 28 |  |  |  |  | 
2 | CC(C)(C)OC(=O)N1CCCN(C(=O)OC(C)(C)C)CCN(C(=O)OC(C)(C)C)CCCNC(Cc2ccc(O)c3ncccc23)CC1 (stereo not shown) [I3, tri-tert-butyl 11-((8-hydroxyquinolin-5-yl)methyl)-1,4,8,12-tetraazacyclopentadecane-1,4,8-tricarboxylate] | 15 |  |  |  |  | 
3 | Oc1ccc(CN2CCCNCCNCCCNCC2)c2cccnc12 [I4, 5-((1,4,8,11-tetraazacyclotetradecane-1-yl)methyl)quinolin-8-ol] | 27 |  |  |  |  | 
4 | Oc1ccc(CN2CCCNCCN(Cc3ccc(CN4CCCNCCNCCCNCC4)cc3)CCCNCC2)c2cccnc12 [I7, 5-((8-(4-((1,4,8,11-tetraazacyclotetradecane-1-yl)methyl)benzyl)-1,4,8,11-tetraazacyclotetradecan-1-yl)methyl)quinolin-8-ol] | 93 | 0.122 | 0.303 |  |  | IC50 (KB cells; [3]): ~0.1 µM; Antiproliferative effect on U87/GFP cells: concentration at which activity is observed (U87/GFP cells [1]; percentage not given): 2 µM
5 | Oc1ccc(CN2CCN(Cc3ccc(O)c4ncccc34)CC2)c2cccnc12 [I8, 5,5′-(piperazine-1,4-diylbis (methylene))diquinolin-8-ol] | 94 | 0.043 | 0.032 |  |  | 
6 | CC(C)(C)OC(=O)N1CCCN(C(=O)OC(C)(C)C)CCN(Cc2ccc(O)c3ncccc23)CCCN(Cc2ccc(O)c3ncccc23)CC1 [I9, di-tert-butyl 4,8-bis((8-hydroxyquinolin-5-yl)methyl)-1,4,8,11-tetraazacyclotetradecane-1,11-dicarboxylate] | 77 | 0.398 | 0.639 |  |  | IC50 (KB cells; [3]): ~0.4 µM
7 | Oc1ccc(CN(Cc2ccccc2)Cc2ccc(O)c3ncccc23)c2cccnc12 [I12] | 93 |  |  | 0.0015 | 0.005 | Antiproliferative effect on U87/GFP cells: percentage inhibition (U87/GFP cells [1]; at 0.5 μM): 30%; IC50 (U87/GFP cells [1]; concentration giving 30% inhibition of proliferation): 0.5 µM; Antimigratory effect on U87/GFP cells: percentage inhibition (U87/GFP cells [2]; at 2 μM): 80%; IC50 (U87/GFP cells [2]; [8]): 2 µM
8 | Oc1ccc(CNCc2ccccc2)c2cccnc12 [I13, 5-((benzylamino)methyl)quinolin-8-ol] | 90 | > 1 | 1.3 |  |  | inhibition at 10 µM (U87/GFP cells [1]; Homo sapiens): 50%; IC50 (U87/GFP cells [1]; [9]): 10 µM
9 | Cc1ccc(CNCc2ccc(O)c3ncccc23)cc1 [I16, 5-((4-methylbenzylamino)methyl)quinolin-8-ol] |  | 11 | 10 |  |  | Cytotoxicity on KB cells (percentage inhibition of cell viability) (KB cells; at 2 μM): 50% at 2 μM; inhibition at 2 µM (U87/GFP cells [1]; Homo sapiens): 80%; IC50 (U87/GFP cells [1]; concentration giving 80% inhibition of proliferation): 2 µM; inhibition at 2 µM (U87/GFP cells [2]; Homo sapiens, at 2 μM, read-out: Antimigratory effect on U87/GFP cells: percentage inhibition): 80%; IC50 (U87/GFP cells [2]; [8]): 2 µM
10 | Oc1ccc(NCc2cccc3ccccc23)c2cccnc12 [I17, 5-(naphthalen-1-ylmethylamino)quinolin-8-ol] |  | 1 | 0.95 |  |  | 
11 | Oc1ccc(N(Cc2cccc3ccccc23)c2ccc(O)c3ncccc23)c2cccnc12 [I18, 5,5′-(naphthalen-1-ylmethylazanediyl)diquinolin-8-ol] |  | 0.005 | 0.0045 |  |  | inhibition at 2 µM (U87/GFP cells [1]; Homo sapiens): 50%; IC50 (U87/GFP cells [1]; [9]): 2 µM
12 | CC(NCc1ccc(O)c2ncccc12)c1ccccc1 (stereo not shown) [I33] |  |  |  | 1 | 1.1 | Antiproliferative effect on U87/GFP cells: percentage inhibition (U87/GFP cells [1]; at 0.5 μM): 50%; IC50 (U87/GFP cells [1]; [10]): 0.5 µM
13 | Oc1ccc(CNCc2ccc(C(F)(F)F)cc2)c2cccnc12 [I34] |  |  |  | 10 | 9 | Antiproliferative effect on U87/GFP cells: percentage inhibition (U87/GFP cells [1]; at 5-10 μM): 50%; IC50 (U87/GFP cells [1]; [10]): 5 to 10 µM
14 | Oc1ccc(CNCc2cccc(C(F)(F)F)c2)c2cccnc12 [I35] |  |  |  | 0.2 | 0.22 | 
15 | CC(C)(C)OC(=O)N(Cc1cccc(C(F)(F)F)c1)Cc1ccc(O)c2ncccc12 [I36] |  |  |  | 1 | 1.1 | Antiproliferative effect on U87/GFP cells: percentage inhibition (U87/GFP cells [1]; at 5-10 μM): 50%; IC50 (U87/GFP cells [1]; [10]): 5 to 10 µM
16 | CC(C)(C)OC(=O)N(Cc1ccc(C(F)(F)F)cc1)Cc1ccc(O)c2ncccc12 [I37] |  |  |  | 8 | 9 | Antiproliferative effect on U87/GFP cells: percentage inhibition (U87/GFP cells [1]; at 5-10 μM): 50%; IC50 (U87/GFP cells [1]; [10]): 5 to 10 µM
17 | CC(C)(C)OC(=O)N(Cc1ccccc1)Cc1ccc(O)c2ncccc12 [I38] |  |  |  | 0.9 | 1.1 | Antiproliferative effect on U87/GFP cells: percentage inhibition (U87/GFP cells [1]; at 5-10 μM): 50%; IC50 (U87/GFP cells [1]; [10]): 5 to 10 µM
18 | CC(=O)O[C@H]1C(=O)[C@@]2(C)[C@H]([C@H](OC(=O)c3ccccc3)[C@]3(O)C[C@H](OC(=O)[C@H](O)[C@@H](NC(=O)c4ccccc4)c4ccccc4)C(C)=C1C3(C)C)[C@]1(OC(C)=O)CO[C@@H]1C[C@@H]2O [Taxol] |  |  |  |  |  | LD50 (mice): about 10 mg/kg
19 | Cn1nnc2c(C(N)=O)ncn2c1=O [Temodal ®, reference compound] |  |  |  |  |  | inhibition at 10 µM (U87/GFP cells [1]; Homo sapiens): 50%; IC50 (U87/GFP cells [1]; [9]): 10 µM; inhibition at 10 µM (U87/GFP cells [2]; Homo sapiens, at 10 μM, read-out: Antimigratory effect on U87/GFP cells: percentage inhibition): 50%; IC50 (U87/GFP cells [2]; Homo sapiens, concentration giving 50% inhibition of migration): 10 µM
